Test results taken from patent publication US7071232B1, “Small molecules that increase the conversion of food to body weight gain” (priority 1998, dated 2006).
Values joined by “and” are separate entries in the source; they are usually repeats but may differ in a detail not shown here. Identical values can stand only once. Like-named read-outs stand apart in the source and are kept apart here.

Experiments:
[1] = system: Avian x Ross broiler chicks; experiment: Second experiment, less environmental stress: feed efficiency ratios through day 14; format: in vivo; settings: for Feed efficiency ratio, MEAN: through day 14; for conversion of feed to weight vs saline (in words): day 14
[2] = system: Peterson×Hubbard male broiler chicks; settings: in vivo
[3] = system: Peterson×Hubbard male broiler chicks; settings: in vivo; remark: listed apart in the source

`NCCC(=O)NCCSSCCNC(=O)CCN` [beta-alethine] was tested, and the “% decrease over saline control, saline #1” value (from here on “% decrease … saline #1”) ([1]; 2 pg in ovo vs saline in ovo #1) was 0.34%, the “% decrease over saline control, saline #2” value ([1]; 2 pg in ovo vs saline in ovo #2) was −0.34% and the “Feed efficiency ratio, MEAN” value ([1]; 2 pg per bird in ovo) was 1.181. The “Feed efficiency ratio, MEAN” value ([1]; 2 pg per bird sc) was 1.173, the “% decrease over saline control” value ([1]; 2 pg sc vs saline s.c. control) was −0.89% and the “% decrease … saline #1” value ([1]; 2 ng in ovo + fed in water (2 ng weekly) vs saline in ovo #1) was 2.39%. For the same molecule, the “% decrease over saline control, saline #2” value ([1]; 2 ng in ovo + fed in water (2 ng weekly) vs saline in ovo #2) was 1.73%, the “Feed efficiency ratio, MEAN” value ([1]; 2 ng in ovo + fed in water (2 ng weekly)) was 1.157 and the “% decrease … saline #1” value ([1]; 2 ng in ovo vs saline in ovo #1) was 3.21%. For the same molecule, the “conversion of feed to weight vs saline (in words)” value ([1]; 2 ng in ovo) was “significantly greater conversion of feed to weight”, the “Feed efficiency ratio, MEAN” value ([1]; 2 ng per bird in ovo) was 1.147 and the “Feed efficiency ratio, MEAN” value ([1]; 2 ng per bird sc) was 1.150. The “conversion of feed to weight vs saline (in words)” value ([1]; 2 ng s.c., not significant vs s.c. saline) was “significantly better than saline given in ovo”, the “% decrease over saline control” value ([1]; 2 ng sc vs saline s.c. control) was 1.16% and the “average decrease in feed efficiency ratios” value ([1]; normal flock of Avian×Ross broiler chicks) was “about 4%”. The “Deliverable Weight Ratio” value [2] was 1.367, the “Deliverable Weight Ratio, % improvement vs negative control” value [2] was 10.8% and the “Feed Efficiency” value [2] was 1.298. The “Feed Efficiency, % improvement vs negative control” value [2] was 7.9%, the “Survival (% Alive)” value [3] was 96% and 100% and 99% and 98% and the “chicks died in one pen” value [3] was 5. The mortality rate [3] was 0%, the “# dead from all causes of death (cumulative)” value ([3]; sc) was 0 and the “Survival (% Alive)” value ([3]; sc) was 100%.
